Laboratory results: US8795691B2, “Nanotubes and compositions thereof” (Brown University, priority 2010, dated 2014)

What was measured:
Assay type in all cases: cell-based
[1] = tested on: Rat aortic endothelial cells (RAEC); assay: Endothelial cell adhesion on RNT-coated titanium; conditions: coated on Ti, 4 h, FIG. 9
Experimental: (§1) Titanium (Ti) (1 cm×1 cm×0.05 cm) (Alfa Aesar Ti foil) and glass coverslips were soaked in acetone for 15 min, sonicated for 15 min in acetone, and rinsed with dH2O. They were then soaked and sonicated in 70% ethanol and rinsed with dH2O. Lastly, they were soaked and sonicated in dH2O for another 15 min and rinsed. The glass was then etched in 1 M NaOH for 1 h and thoroughly rinsed in dH2O. All of the Ti and glass coverslips were oven-dried overnight and autoclaved for sterilization. The day before cell seeding, the cleaned Ti substrates were coated with the various RNTs (0.01 mg/mL) and KRSR peptide (0.01 mg/mL) solutions for 45 min at room temperature. They were then removed from the solutions and air-dried overnight. […]
(§2) Osteoblasts, fibroblasts and endothelial cells were seeded onto the substrates at a density of 3500 cells/cm^2 and were incubated in the cell culture medium (specifically, DMEM supplemented with FBS and P/S for osteoblasts, EMEM supplemented with FBS for fibroblasts and MCDB-131 complete medium for endothelial cells) for 4 h. […] The cell density was then determined by counting cells using Image Pro Analyzer. […]
(§3) Data are presented as the mean value±the standard error of the mean and were analyzed with a student's t-test to make pair-wise comparisons. […]

[2] = tested on: human fetal osteoblast cell line (ATCC, CRL-11372); assay: Osteoblast adhesion on RNT-coated titanium; conditions: coated on Ti, 4 h, FIG. 5
Experimental: as §1, §2, §3

[3] = tested on: rat skin fibroblast cell line (FR, ATCC, CRL-1213); assay: Fibroblast adhesion on RNT-coated titanium; conditions: 4 h, FIG. 7
Experimental: as §1, §2, §3

In the case of “lysine-arginine-serine-argine (KRSR) [KRSR peptide]”, the “endothelial cell adhesion / density” value [1] is reported as “did not enhance endothelial cell adhesion”, the “osteoblast adhesion (in words)” value [2] is reported as “promoted more osteoblast cell adhesion relative to uncoated Ti” and the “fibroblast adhesion compared to uncoated Ti” value [3] is reported as “did not enhance fibroblast adhesion”.
